Data: patent publication US12622887B2 (priority 2019, dated 2026)

Assays:
[1] = tested on: αKlotho; test: Release of soluble αKlotho in supernatant of primary tubule cell cultures (RPTEC), ELISA; type: cell-based; conditions: for Average Klotho value: RPTEC supernatant
Method: Concentrations of H2O2 equal to 0.1, 0.2, 0.5 up to 1 mM were also tested. […] The soluble aKlotho analysis was performed using the commercial test ELISA lbl code 277789 following the manufacturer's instructions. […] The soluble aKlotho analysis was performed using ELISA lbl test.

[2] = tested on: primary renal tubule cells; test: MTT test, cell proliferation/viability of primary renal tubule cells; type: cell-based; conditions: tubule cells exposed to H2O2 0.5 mM alone

## C[N+](C)(C)C[C@H](O)CC(=O)[O-] [Carnitine, L-Carnitine]
[1]; pre-treatment 12 h at 5 mM, then 6 h Gentamicin sulphate 10 mM
  Average Klotho value: 6.68 pg/mL
[1]; pre-treatment 12 h at 5 mM, then 6 h Iodixanol 100 mg/ml
  Average Klotho value: 77.06 pg/mL
[1]; pretreatment 12 h at 5 mM, then 6 h H2O2 0.1 mM
  Average Klotho value: 140.25 pg/mL

## CC(=O)N(CC(O)CN(C(C)=O)c1c(I)c(C(=O)NCC(O)CO)c(I)c(C(=O)NCC(O)CO)c1I)c1c(I)c(C(=O)NCC(O)CO)c(I)c(C(=O)NCC(O)CO)c1I (centres unmarked) [Iodixanol]
[1]; Iodixanol contrast medium only, 6 hours
  Change in Klotho compared to the basal condition: drastic reduction in Klotho
[1]; Iodixanol 100 mg/ml 6 h alone
  Average Klotho value: 0 pg/mL

## OO [H2O2]
[2]
  Cell viability (MTT test): significant reduction in cell viability
[1]; 6 hours exposure of primary tubule cells
  Lowest concentration able to induce a statistically significant reduction in Klotho: 0.1 mM
[1]; H2O2 6 h alone (0.1 mM), no pretreatment
  Average Klotho value: 55.42 pg/mL
